Laboratory results: US20110034466A1, “NOVEL FIVE-MEMBERED RING COMPOUND” (priority 2008, published 2011)

What was measured:
[1] = system: Corticosterone generation; assay: Assessment test of steroid hormone synthesis inhibition (Corticosterone generation in rat adrenal gland cells); type: cell-based; conditions: 10 μM test article, rat adrenal cells with cAMP, 2 hours, read-out: Steroid Synthesis Inhibition Rate (%) (10 μM)
Text: Assessment Test of Steroid Hormone Synthesis Inhibition
• Cell Strainer (BD Falcon®) • Cell Titer-Glo® (Promega) • Collagenase from Clostridium histolyticum (Sigma-Aldrich) • Corticosterone EIA kit (Cayman) • Dimethylsulfoxide (referred to as DMSO hereinafter) (nacalai tesque) • D-MEM (GIBCO) • DNase I (Invitrogen) • Fetal Bovine Serums (referred to as FBS hereinafter) (Bioflud) • Multiple well plates for adhesive cell culture, 96 wells (IWAKI) • N^6,2′-O-Dibutyryladenosine 3′,5′-cyclic monophosphate sodium salt (referred to as cAMP hereinafter) (Sigma) • Penicillin Streptomycin Mixed Solution (nacalai tesque)
Control examples 1 to 4: Control example 1 was Example 350 of Patent Document 2. Control examples 2 to 4 were synthesized according to Patent Document 2.
Adrenal glands were taken out from rats, and removed excess connective tissues, adiposes and membranes in D-MEM. The adrenal glands were transferred to polytubes, and quickly segmentalized with scissors. Thereto was added D-MEM containing 1 mg/mL collagenase and 0.25 μL DNase 1, and then the mixture was shaken at 37° C. for 10 minutes in 80 times/minute. Then, the mixture was pipetted by 1 mL truncated pipette tip, and shaken again under the same condition. After 10 minutes, the mixture was pipetted again by 1 mL pipette tip, and the cell suspension was filtered through metal mesh. The filtrate was centrifuged at 4° C. for 5 minutes in 500 g. The supernatant was removed, and thereto was added a mixed solution of 0.16 M NH4Cl and 0.17 M Tris-HCl in 3 mL. The mixture was let stand on ice for 5 minutes, and then centrifuged under the same condition. Then, the supernatant was removed and then thereto was added D-MEM. The cell suspension was prepared and centrifuged under the same condition. Again, the supernatant was removed and then thereto was added D-MEM to give a cell suspension. The cell suspension was filtered by Cell Strainer (BD Falcon®). The filtrate was centrifuged under the same condition. After the completion of the centrifugation, the supernatant was removed, and thereto was added D-MEM containing 1% Penicillin Streptomycin Mixed Solution and 10% FBS. The mixture was seeded in Multiple well plate for adhesive cell culture, 96 wells (IWAKI) in 10000 cells/well, and incubated at 37° C. overnight in CO2 incubator.
Test article concentrations were prepared in DMSO to 2000 μM, and D-MEM containing 20 μM test article in D-MEM was prepared.
Cell-seeded plate was incubated overnight, and then the medium was removed and thereto was added D-MEM containing 20 μM test article in 50 μL/well. Then, to the mixture was promptly added D-MEM containing 20 μM cAMP in 50 μL/well so that the final concentration of the test article was 10 μM. After the addition of 2 types of D-MEM, the mixture was incubated at 37° C. for 2 hours in CO2 incubator. After 2 hours, the supernatant (50 μL) of the medium was collected. For cells, the cell toxicity of the test article was assessed according to a conventional method using Cell Titer-Glo® (Promega). For the collected supernatant, the Corticosterone concentration in the supernatant was determined according to a conventional method using Corticosterone EIA kit (Cayman).
The inhibition rate of 10 μM test article to Corticosterone generation was calculated according to the following formula confirming that the cell toxicity by the test article was not recognized.

rat lung membrane SMBS = assay: Receptor-binding assessment test using rat lung membranes ([125I]-iodocyanopindolol ligand binding assay); conditions: 1 μM test compound; ratio of inhibiting specific binding of [125I]-iodocyanopindolol to rat lung membrane SMBS
Experimental: Receptor-Binding Assessment Test of Compounds Using Rat Lung Membranes
The assessment test was carried out according to the method of Sugasawa, T. et al., J. Biol. Chem., 272, 21244-21252 (1997).
Preparation of Rat Lung Membranes
Lung taken out from SD male rat (7-week old under test, Charles River Laboratories Japan, Inc.) was removed trachea and blood vessels to shred and washed with iced tris-saline buffer (10 mM tris hydrochloric acid-154 mM sodium chloride, pH7.4). The resultant was homogenized by Hiscotron with ice-cold tris-saline buffer containing a homogenization buffer (1 mM ethylenediaminetetraacetic acid (EDTA), 1 mM 4-(2-aminoethyl)benzenesulfonyl fluoride (AEBSF), 5 μg/ml aprotinin, 5 μg/ml leupeptine) (maximum rate: 1 minute). The supernatant after low-speed centrifugation (1500×g, 20 minutes, 4° C.) was ultracentrifuged (100000×g, 20 minutes, 4° C.), and the pellet was suspended in tris-saline buffer to store at −80° C. The protein concentrations were determined by Bio-Rad Protein Assay Kit using bovine serum albumin (BSA) as a standard.
To each well in protein-nonabsorptive round-bottom 96-well assay plate (commercially available from Iwaki Glass Co., Ltd.) were added tris-saline buffer (200 μl) containing 1 nM [^125I]-iodocyanopindolol (commercially available from Amersham plc), 10 μM serotonine, 20 μm dl-propranolol, 10 μM phentolamine, 1.1 mM ascorbic acid and 100 μg lung membrane, and the mixture was pipetted to combine and then incubated at 37° C. for 30 minutes. The test compounds were dissolved in 100% dimethyl sulfoxide solution, and thereto was added 2 μl (final DMSO concentration: 1%). In order to calculate nonspecific binding amounts, to the mixture was added L-threo-3-(3,4-dihydroxyphenyl)-N-[3-(4-fluorophenyl)propyl]serine pyrrolidine amide at 100 μM of the final concentration as an alternative to the test compounds. During this time, 100 μl of 0.3% polyethyleneimine (PEI)/tris-saline buffer was added to MultiScreen plate (96-well B glass fiber, Millipore Cat. No. MAFB NOB10), and incubated for over 30 minutes. The resultant was filtered with aspiration (aspiration by the addition of 200 μl iced tris-saline buffer) to wash, and the reaction solutions on 96-well assay plate were filtered with aspiration to wash four times on MultiScreen plate. B glass fiber filter paper at the bottom of MultiScreen plate was punched out, and γ-ray doses of [^125I]-iodocyanopindolol trapped on the filter paper were determined as binding amounts. The binding amounts in the presence of DMSO (final concentration: 1%) were total binding amounts, and the binding amounts in the presence of 100 μM L-threo-3-(3,4-dihydroxyphenyl)-N-[3-(4-fluorophenyl)propyl]serine pyrrolidine amide were nonspecific binding amounts. The values subtracted the nonspecific binding amounts from the total binding amounts were the specific binding amounts. The binding activity of a compound was calculated according to the following formula, which was shown in the ratio of inhibiting the specific binding of [^125I]-iodocyanopindolol to rat lung membrane SMBS by the test compound.

SMILES	melting point [°C]	Binding Activity (%) (1 μM) (rat lung membrane SMBS)	inhibition at 10 µM [1] [%]
CCNC(=O)NCCn1c(-c2ccc(C(=O)N3CCOCC3)cc2)cs/c1=N\c1ccc(F)c(C)c1 [Example 53]	183 to 186	–	–
CNC(=O)NCCn1c(-c2ccc(CN3CCOCC3)cc2OC)cs/c1=N\c1cccc(F)c1 [Example 28]	163 to 166	–	–
CNC(=O)NCCn1c(-c2ccc(CN3CCOCC3)cc2C)cs/c1=N\c1ccc(C)c(F)c1 [Example 22]	171 to 174	–	–
CNC(=O)NCCn1c(-c2ccc(CN3CCOCC3)c(OC)c2)cs/c1=N\c1cccc(F)c1F [Example 32]	150 to 153	–	–
CNC(=O)NCCn1c(-c2ccc(CN3CCOCC3)cc2OC)cs/c1=N\c1cccc(F)c1F [Example 30]	161 to 165	–	–
CNC(=O)NCCn1c(-c2ccc(CN3CCOCC3)cc2OC)cs/c1=N\c1ccc(C)c(F)c1 [Example 29]	144 to 150	–	–
CNC(=O)NCCn1c(-c2ccc(CN3CCOCC3)cc2C)cs/c1=N\c1ccc(F)cc1C [Example 24]	122 to 125	–	–
CNC(=O)NCCn1c(-c2ccc(CN3CCOCC3)c(OC)c2)cs/c1=N\c1ccc(F)c(C)c1 [Example 21, N-{2-[(2Z)-2-[(4-Fluoro-3-methylphenyl)imino]-4-[3-methoxy-4-(morpholin-4-ylmethyl)phenyl]-1,3-thiazol-3(2H)-yl]ethyl}-N′-methylurea]	–	82	8
CNC(=O)NCCn1c(-c2ccc(CN3CCOCC3)c(OC)c2)cs/c1=N\c1cccc(F)c1 [Example 31]	170 to 174	–	–
CNC(=O)NCCn1c(-c2ccc(CCN3CCOCC3)cc2)cs/c1=N\c1cccc(F)c1F [Example 46]	155 to 164	–	–
CNC(=O)NCCn1c(-c2ccc(CN3CCOCC3)c(OC)c2)cs/c1=N\c1ccc(F)cc1F [Example 33]	164 to 169	–	–
CNC(=O)NCCn1c(-c2ccc(CN3CCOCC3)cc2C)cs/c1=N\c1cccc(F)c1 [Example 23]	119 to 121	–	–
CNC(=O)NCCn1c(-c2ccc(CN3CCOCC3)cc2C)cs/c1=N\c1cccc(F)c1F [Example 26]	132 to 135	–	–
CNC(=O)NCCn1c(-c2ccc(CN3CCOCC3)c(C)c2)cs/c1=N\c1cccc(F)c1 [Example 27]	151 to 152	–	–
CNC(=O)NCCn1c(-c2ccc(CN3CCOCC3)cc2C)cs/c1=N\c1ccc(F)cc1F [Example 25]	154 to 160	–	–
CCNC(=O)NCCn1c(-c2ccc(C(=O)N3CCOCC3)cc2)cs/c1=N\c1ccc(F)cc1F [Example 54]	179 to 180	–	–
CNC(=O)NCCn1c(-c2ccc(CN3CCOCC3)cc2C)cs/c1=N\c1ccc(F)c(C)c1 [Example 18, N-{2-[(2Z)-2-[(4-Fluoro-3-methylphenyl)imino]-4-[2-methyl-4-(morpholin-4-ylmethyl)phenyl]-1,3-thiazol-3(2H)-yl]ethyl}-N′-methylurea]	–	88	28
CNC(=O)NCCn1c(-c2ccc(CCN3CCOCC3)cc2)cs/c1=N\c1ccc(F)cc1F [Example 47]	166 to 172	–	–

More lines, main results first:

melting point [°C]	Binding Activity (%) (1 μM) (rat lung membrane SMBS)	SMILES	inhibition at 10 µM [1] [%]
154 to 160	–	CNC(=O)NCCn1c(-c2ccc(CCN3CCOCC3)cc2)cs/c1=N\c1cccc(F)c1 [Example 45]	–
182 to 186	–	CCNC(=O)NCCn1c(-c2ccc(C(=O)N3CCOCC3)cc2)cs/c1=N\c1cccc(Cl)c1 [Example 56]	–
191 to 198	66	CCNC(=O)NCCn1c(-c2ccc(C(=O)N3CCOCC3)cc2)cs/c1=N\c1cccc(Cl)c1 [Example 59]	7
179 to 185	–	CNC(=O)NCCn1c(-c2ccc(C(=O)NC3CC3)cc2)cs/c1=N\c1cccc(F)c1 [Example 64]	–
196 to 203	–	CCNC(=O)NCCn1c(-c2ccc(C(=O)N3CCOCC3)cc2)cs/c1=N\c1ccc(F)c(C)c1 [Example 58]	–
175 to 178	–	CCNC(=O)NCCn1c(-c2ccc(C(=O)N3CCOCC3)cc2)cs/c1=N\c1ccc(C)c(F)c1 [Example 55]	–
170 to 176	–	CCNC(=O)c1ccc(-c2cs/c(=N\c3cccc(F)c3)n2CCNC(=O)NC)cc1 [Example 60]	–
180 to 188	65	CCNC(=O)c1ccc(-c2cs/c(=N\c3ccc(F)c(F)c3)n2CCNC(=O)NC)cc1 [Example 62]	2
185 to 192	–	CCNC(=O)c1ccc(-c2cs/c(=N\c3cccc(Cl)c3)n2CCNC(=O)NC)cc1 [Example 63]	–
172 to 178	62	CCNC(=O)c1ccc(-c2cs/c(=N\c3ccc(F)cc3)n2CCNC(=O)NC)cc1 [Example 61]	6
172 to 177	–	CCNC(=O)NCCn1c(-c2ccc(C(=O)N3CCOCC3)cc2)cs/c1=N\c1cccc(F)c1 [Example 57]	–
